From publication PMC8098682 (Chemical Science, 2021)
pIC50: −log10 of the molar value.

Target: T1, isocitrate lyase (ICL) (Salmonella enterica, UniProt P51066)
T1 sequence (P51066 1-434): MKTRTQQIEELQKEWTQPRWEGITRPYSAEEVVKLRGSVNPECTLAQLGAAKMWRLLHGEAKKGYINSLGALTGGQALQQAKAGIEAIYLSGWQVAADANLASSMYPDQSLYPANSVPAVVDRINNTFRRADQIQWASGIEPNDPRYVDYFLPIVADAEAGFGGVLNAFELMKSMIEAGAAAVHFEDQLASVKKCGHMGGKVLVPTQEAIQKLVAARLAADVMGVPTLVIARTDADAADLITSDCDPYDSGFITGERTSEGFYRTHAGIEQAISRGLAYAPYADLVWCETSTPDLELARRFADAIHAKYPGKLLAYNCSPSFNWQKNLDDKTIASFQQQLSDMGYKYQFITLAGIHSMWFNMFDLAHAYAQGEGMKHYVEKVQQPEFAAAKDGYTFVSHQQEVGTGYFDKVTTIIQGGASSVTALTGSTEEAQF
Assay: enzyme activity assay of purified ICL
Assay type: biochemical

Question: `C=C(CC(=O)O)C(=O)O` [ITA, itaconate] was tested. Which pIC50 did it give?
Answer: Its pIC50 is roughly 2.59.
